{"source": "ChEMBL document CHEMBL4804284", "set-up_in_all_cases": "scale not given: the % may be the effect or the level left", "key": {"[1]": {"target": "Tyrosine-protein kinase Mer (Homo sapiens) (UniProt Q12866)", "assay": "Inhibition of DNA-tagged human MERTK assessed as percent of control at 50000 nM by qPCR analysis relative to control"}, "[2]": {"target": "Serine/threonine-protein kinase LATS1 (Homo sapiens) (UniProt O95835)", "assay": "Inhibition of DNA-tagged human LATS1 assessed as percent of control at 50000 nM by qPCR analysis relative to control"}, "[3]": {"target": "Cyclin-dependent kinase 5 (Homo sapiens) (UniProt Q00535)", "sequence (Q00535 whole entry, looked up)": "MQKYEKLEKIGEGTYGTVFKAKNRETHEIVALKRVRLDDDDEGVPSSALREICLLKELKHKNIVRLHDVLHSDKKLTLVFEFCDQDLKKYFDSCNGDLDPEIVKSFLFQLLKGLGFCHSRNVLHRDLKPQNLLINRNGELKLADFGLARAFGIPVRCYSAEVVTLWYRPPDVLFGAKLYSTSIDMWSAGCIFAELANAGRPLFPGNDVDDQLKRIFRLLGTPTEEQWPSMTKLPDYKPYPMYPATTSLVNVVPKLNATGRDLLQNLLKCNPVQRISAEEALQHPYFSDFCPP", "assay": "Inhibition of DNA-tagged human CDK5 assessed as percent of control at 50000 nM by qPCR analysis relative to control"}, "[4]": {"target": "Casein kinase I isoform gamma-1 (Homo sapiens) (UniProt Q9HCP0)", "assay": "Inhibition of DNA-tagged human CSNK1G1 assessed as percent of control at 50000 nM by qPCR analysis relative to control"}, "[5]": {"target": "Dual specificity protein kinase CLK2 (Homo sapiens) (UniProt P49760)", "sequence (P49760 whole entry, looked up)": "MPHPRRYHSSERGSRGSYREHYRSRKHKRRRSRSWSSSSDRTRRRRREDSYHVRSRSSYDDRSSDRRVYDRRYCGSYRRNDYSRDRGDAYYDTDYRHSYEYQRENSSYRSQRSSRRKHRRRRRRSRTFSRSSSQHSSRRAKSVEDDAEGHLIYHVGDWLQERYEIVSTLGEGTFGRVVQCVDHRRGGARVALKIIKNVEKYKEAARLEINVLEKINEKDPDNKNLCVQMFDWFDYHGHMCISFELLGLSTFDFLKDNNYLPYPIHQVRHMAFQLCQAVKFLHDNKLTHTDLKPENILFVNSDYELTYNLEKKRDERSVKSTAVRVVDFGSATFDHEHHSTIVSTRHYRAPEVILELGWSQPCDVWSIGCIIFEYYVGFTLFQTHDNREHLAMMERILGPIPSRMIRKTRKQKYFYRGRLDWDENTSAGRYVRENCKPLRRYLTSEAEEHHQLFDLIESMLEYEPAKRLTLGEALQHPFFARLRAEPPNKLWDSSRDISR", "assay": "Inhibition of DNA-tagged human CLK2 assessed as percent of control at 50000 nM by qPCR analysis relative to control"}, "[6]": {"target": "Ephrin type-A receptor 1 (Homo sapiens) (UniProt P21709)", "sequence (P21709 whole entry)": "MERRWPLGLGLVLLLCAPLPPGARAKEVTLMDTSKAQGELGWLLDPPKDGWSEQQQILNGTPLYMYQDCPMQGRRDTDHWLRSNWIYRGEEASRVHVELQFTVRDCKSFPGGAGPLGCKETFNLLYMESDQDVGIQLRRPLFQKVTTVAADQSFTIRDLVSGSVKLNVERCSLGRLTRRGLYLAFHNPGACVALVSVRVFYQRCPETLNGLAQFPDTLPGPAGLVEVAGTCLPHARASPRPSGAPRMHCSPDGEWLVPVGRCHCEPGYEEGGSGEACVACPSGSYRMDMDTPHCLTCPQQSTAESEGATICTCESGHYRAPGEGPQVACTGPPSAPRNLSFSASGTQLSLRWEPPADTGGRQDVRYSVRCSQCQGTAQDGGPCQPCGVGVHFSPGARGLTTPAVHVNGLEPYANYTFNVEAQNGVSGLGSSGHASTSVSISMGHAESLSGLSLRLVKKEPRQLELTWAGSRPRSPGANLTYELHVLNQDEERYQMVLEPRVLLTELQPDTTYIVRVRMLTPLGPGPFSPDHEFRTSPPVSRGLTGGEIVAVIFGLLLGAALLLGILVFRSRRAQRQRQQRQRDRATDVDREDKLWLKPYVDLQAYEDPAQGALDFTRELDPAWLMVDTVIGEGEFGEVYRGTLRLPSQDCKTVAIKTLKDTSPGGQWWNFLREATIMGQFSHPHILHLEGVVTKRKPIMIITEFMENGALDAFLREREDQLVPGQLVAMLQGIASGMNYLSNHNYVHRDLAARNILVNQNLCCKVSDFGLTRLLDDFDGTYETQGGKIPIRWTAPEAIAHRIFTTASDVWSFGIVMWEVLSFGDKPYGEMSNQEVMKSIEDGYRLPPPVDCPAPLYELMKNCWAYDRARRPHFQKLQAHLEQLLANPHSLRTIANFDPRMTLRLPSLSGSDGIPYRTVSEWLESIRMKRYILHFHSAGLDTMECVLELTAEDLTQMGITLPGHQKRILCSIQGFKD", "assay": "Inhibition of DNA-tagged human EPHA1 assessed as percent of control at 50000 nM by qPCR analysis relative to control"}, "[7]": {"target": "cAMP-dependent protein kinase catalytic subunit alpha (Homo sapiens) (UniProt P17612)", "assay": "Inhibition of DNA-tagged human PKAC-alpha assessed as percent of control at 50000 nM by qPCR analysis relative to control"}, "[8]": {"target": "Mitogen-activated protein kinase 11 (Homo sapiens) (UniProt Q15759)", "assay": "Inhibition of DNA-tagged human p38-beta assessed as percent of control at 50000 nM by qPCR analysis relative to control"}, "[9]": {"target": "Serine/threonine-protein kinase RIO1 (Homo sapiens) (UniProt Q9BRS2)", "sequence (Q9BRS2 whole entry)": "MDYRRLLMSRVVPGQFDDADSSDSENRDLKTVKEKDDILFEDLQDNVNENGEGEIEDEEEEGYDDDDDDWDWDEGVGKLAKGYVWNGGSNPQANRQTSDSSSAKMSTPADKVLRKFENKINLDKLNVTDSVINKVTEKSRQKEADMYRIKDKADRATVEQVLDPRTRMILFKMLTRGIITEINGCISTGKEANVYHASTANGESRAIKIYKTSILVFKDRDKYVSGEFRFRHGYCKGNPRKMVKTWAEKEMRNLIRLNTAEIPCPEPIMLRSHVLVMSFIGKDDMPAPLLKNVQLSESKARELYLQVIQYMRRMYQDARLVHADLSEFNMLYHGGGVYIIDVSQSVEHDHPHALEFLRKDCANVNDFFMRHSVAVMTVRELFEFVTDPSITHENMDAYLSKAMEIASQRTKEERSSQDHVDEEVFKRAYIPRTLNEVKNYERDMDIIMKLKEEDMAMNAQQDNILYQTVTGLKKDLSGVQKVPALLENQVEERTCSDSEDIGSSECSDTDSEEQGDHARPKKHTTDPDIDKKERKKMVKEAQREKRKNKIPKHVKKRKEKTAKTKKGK", "assay": "Inhibition of DNA-tagged human RIOK1 assessed as percent of control at 50000 nM by qPCR analysis relative to control"}, "[10]": {"target": "Tyrosine-protein kinase FRK (Homo sapiens) (UniProt P42685)", "assay": "Inhibition of DNA-tagged human FRK assessed as percent of control at 50000 nM by qPCR analysis relative to control"}, "[11]": {"test_system": "Tyrosine-protein kinase ABL1 (Homo sapiens), P00519 [E255K]", "assay": "Inhibition of DNA-tagged phosphorylated human ABL1 E255K mutant assessed as percent of control at 50000 nM by qPCR analysis relative to control"}, "[12]": {"target": "Citron Rho-interacting kinase (Homo sapiens) (UniProt O14578)", "assay": "Inhibition of DNA-tagged human CIT assessed as percent of control at 50000 nM by qPCR analysis relative to control"}, "[13]": {"target": "Receptor-type tyrosine-protein kinase FLT3 (Homo sapiens) (UniProt P36888)", "sequence (P36888 whole entry)": "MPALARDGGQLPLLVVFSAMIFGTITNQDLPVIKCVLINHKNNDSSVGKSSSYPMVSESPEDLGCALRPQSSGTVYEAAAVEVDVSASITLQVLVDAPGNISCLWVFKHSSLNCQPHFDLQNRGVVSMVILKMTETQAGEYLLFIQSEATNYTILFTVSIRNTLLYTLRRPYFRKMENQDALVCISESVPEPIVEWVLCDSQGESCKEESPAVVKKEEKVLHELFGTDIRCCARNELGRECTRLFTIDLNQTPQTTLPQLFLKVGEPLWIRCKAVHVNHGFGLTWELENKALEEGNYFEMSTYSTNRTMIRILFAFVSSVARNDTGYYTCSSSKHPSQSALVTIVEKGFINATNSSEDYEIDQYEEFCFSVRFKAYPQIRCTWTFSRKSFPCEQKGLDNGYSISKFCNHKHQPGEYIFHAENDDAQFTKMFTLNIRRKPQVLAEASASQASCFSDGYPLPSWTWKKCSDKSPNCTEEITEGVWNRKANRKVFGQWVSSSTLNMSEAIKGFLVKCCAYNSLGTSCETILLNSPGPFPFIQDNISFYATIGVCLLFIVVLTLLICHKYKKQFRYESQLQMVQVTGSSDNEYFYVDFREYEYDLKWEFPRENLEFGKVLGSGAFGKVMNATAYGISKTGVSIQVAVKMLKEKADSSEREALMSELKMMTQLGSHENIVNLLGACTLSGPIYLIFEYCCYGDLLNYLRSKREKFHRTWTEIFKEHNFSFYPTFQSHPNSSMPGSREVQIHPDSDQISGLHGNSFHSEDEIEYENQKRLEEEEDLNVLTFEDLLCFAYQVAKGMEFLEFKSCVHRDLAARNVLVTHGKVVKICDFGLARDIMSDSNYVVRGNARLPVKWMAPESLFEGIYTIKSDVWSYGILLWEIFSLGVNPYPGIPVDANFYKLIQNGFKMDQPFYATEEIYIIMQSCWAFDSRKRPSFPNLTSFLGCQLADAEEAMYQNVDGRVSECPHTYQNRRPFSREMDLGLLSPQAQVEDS", "assay": "Inhibition of DNA-tagged human FLT3 assessed as percent of control at 50000 nM by qPCR analysis relative to control"}, "[14]": {"target": "Serine/threonine-protein kinase 32B (Homo sapiens) (UniProt Q9NY57)", "assay": "Inhibition of DNA-tagged human YANK2 assessed as percent of control at 50000 nM by qPCR analysis relative to control"}, "[15]": {"target": "Ribosomal protein S6 kinase alpha-2 (Homo sapiens) (UniProt Q15349)", "assay": "Inhibition of DNA-tagged human N-terminal RSK3 kinase domain 1 assessed as percent of control at 50000 nM by qPCR analysis relative to control"}, "[16]": {"target": "Ephrin type-B receptor 6 (Homo sapiens) (UniProt O15197)", "assay": "Inhibition of DNA-tagged human EPHB6 assessed as percent of control at 50000 nM by qPCR analysis relative to control"}, "[17]": {"target": "SNF-related serine/threonine-protein kinase (Homo sapiens) (UniProt Q9NRH2)", "assay": "Inhibition of DNA-tagged human SNRK assessed as percent of control at 50000 nM by qPCR analysis relative to control"}, "[18]": {"test_system": "Mast/stem cell growth factor receptor Kit (Homo sapiens), P10721 [L576P]", "sequence (P10721 whole entry L576P)": "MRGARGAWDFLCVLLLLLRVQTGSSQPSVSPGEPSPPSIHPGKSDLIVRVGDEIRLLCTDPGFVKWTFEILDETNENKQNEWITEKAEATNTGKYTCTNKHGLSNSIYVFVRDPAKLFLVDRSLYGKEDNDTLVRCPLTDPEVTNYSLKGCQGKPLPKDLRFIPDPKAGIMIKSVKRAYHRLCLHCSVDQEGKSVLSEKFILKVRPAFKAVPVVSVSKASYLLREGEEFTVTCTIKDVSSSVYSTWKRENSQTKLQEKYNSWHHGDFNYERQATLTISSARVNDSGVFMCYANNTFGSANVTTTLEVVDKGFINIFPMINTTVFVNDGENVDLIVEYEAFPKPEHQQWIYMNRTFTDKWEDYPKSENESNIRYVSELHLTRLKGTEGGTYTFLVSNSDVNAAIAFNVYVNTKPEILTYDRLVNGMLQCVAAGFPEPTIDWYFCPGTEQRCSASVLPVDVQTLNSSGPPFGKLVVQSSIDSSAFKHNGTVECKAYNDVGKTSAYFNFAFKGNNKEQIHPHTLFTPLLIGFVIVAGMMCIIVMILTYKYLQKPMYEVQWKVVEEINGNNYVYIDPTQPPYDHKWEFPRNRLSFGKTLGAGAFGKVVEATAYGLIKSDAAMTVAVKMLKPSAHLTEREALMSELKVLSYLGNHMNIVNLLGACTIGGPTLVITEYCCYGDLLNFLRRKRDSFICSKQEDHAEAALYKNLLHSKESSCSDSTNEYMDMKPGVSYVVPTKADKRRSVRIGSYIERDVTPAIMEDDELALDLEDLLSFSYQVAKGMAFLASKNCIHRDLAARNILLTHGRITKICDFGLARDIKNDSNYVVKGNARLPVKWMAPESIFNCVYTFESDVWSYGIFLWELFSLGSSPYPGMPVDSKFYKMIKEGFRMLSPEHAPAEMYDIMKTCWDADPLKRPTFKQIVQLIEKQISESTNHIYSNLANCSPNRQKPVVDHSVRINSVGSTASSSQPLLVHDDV", "assay": "Inhibition of DNA-tagged human KIT L576P mutant assessed as percent of control at 50000 nM by qPCR analysis relative to control"}, "[19]": {"target": "Receptor tyrosine-protein kinase erbB-3 (Homo sapiens) (UniProt P21860)", "assay": "Inhibition of DNA-tagged human ERBB3 assessed as percent of control at 50000 nM by qPCR analysis relative to control"}, "[20]": {"target": "Calcium/calmodulin-dependent protein kinase kinase 2 (Homo sapiens) (UniProt Q96RR4)", "assay": "Inhibition of DNA-tagged human CAMKK2 assessed as percent of control at 50000 nM by qPCR analysis relative to control"}, "[21]": {"target": "Leucine-rich repeat serine/threonine-protein kinase 2 (Homo sapiens) (UniProt Q5S007)", "assay": "Inhibition of DNA-tagged human LRRK2 assessed as percent of control at 50000 nM by qPCR analysis relative to control"}, "[22]": {"target": "Serine/threonine-protein kinase RIO3 (Homo sapiens) (UniProt O14730)", "assay": "Inhibition of DNA-tagged human RIOK3 assessed as percent of control at 50000 nM by qPCR analysis relative to control"}, "[23]": {"test_system": "Receptor-type tyrosine-protein kinase FLT3 (Homo sapiens), P36888 [UNDEFINED MUTATION]", "sequence (P36888 whole entry, looked up, change not shown)": "as the sequence (P36888 whole entry) above", "assay": "Inhibition of DNA-tagged human FLT3 ITD mutant assessed as percent of control at 50000 nM by qPCR analysis relative to control"}, "[24]": {"target": "Maternal embryonic leucine zipper kinase (Homo sapiens) (UniProt Q14680)", "sequence (Q14680 whole entry, looked up)": "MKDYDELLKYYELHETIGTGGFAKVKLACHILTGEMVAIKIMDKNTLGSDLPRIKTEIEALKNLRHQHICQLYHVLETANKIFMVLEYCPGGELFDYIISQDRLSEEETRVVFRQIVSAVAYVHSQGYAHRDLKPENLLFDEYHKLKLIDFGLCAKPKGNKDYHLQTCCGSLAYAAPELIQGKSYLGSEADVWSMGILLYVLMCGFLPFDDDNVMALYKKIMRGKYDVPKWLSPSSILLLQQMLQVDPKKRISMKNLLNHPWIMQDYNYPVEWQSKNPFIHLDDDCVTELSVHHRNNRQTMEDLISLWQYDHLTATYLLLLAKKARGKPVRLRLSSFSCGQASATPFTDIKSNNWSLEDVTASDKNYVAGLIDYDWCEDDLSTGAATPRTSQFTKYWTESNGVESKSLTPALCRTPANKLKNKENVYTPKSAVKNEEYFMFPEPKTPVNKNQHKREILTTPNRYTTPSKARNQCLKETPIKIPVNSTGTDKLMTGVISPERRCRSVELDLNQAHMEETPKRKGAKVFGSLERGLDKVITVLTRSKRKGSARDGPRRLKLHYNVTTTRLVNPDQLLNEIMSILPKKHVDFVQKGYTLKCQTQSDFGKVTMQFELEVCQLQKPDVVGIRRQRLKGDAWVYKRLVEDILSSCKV", "assay": "Inhibition of DNA-tagged human MELK assessed as percent of control at 50000 nM by qPCR analysis relative to control"}, "[25]": {"target": "Mitogen-activated protein kinase kinase kinase 1 (Homo sapiens) (UniProt Q13233)", "assay": "Inhibition of DNA-tagged human MAP3K1 assessed as percent of control at 50000 nM by qPCR analysis relative to control"}, "[26]": {"target": "Phosphatidylinositol 5-phosphate 4-kinase type-2 gamma (Homo sapiens) (UniProt Q8TBX8)", "assay": "Inhibition of DNA-tagged human PIP5K2C assessed as percent of control at 50000 nM by qPCR analysis relative to control"}, "[27]": {"target": "Ribosomal protein S6 kinase alpha-6 (Homo sapiens) (UniProt Q9UK32)", "assay": "Inhibition of DNA-tagged human N-terminal RSK4 kinase domain 1 assessed as percent of control at 50000 nM by qPCR analysis relative to control"}, "[28]": {"target": "Tyrosine-protein kinase Fer (Homo sapiens) (UniProt P16591)", "assay": "Inhibition of DNA-tagged human FER assessed as percent of control at 50000 nM by qPCR analysis relative to control"}, "[29]": {"target": "Dual specificity testis-specific protein kinase 1 (Homo sapiens) (UniProt Q15569)", "assay": "Inhibition of DNA-tagged human TESK1 assessed as percent of control at 50000 nM by qPCR analysis relative to control"}}}
{"smiles": "CN1C(=O)/C(=C2/C(=O)Nc3ccccc32)c2ccccc21", "values": [{"measurement": "Activity", "setting": "[1]", "value": 100, "unit": "%"}, {"measurement": "Activity", "setting": "[2]", "value": 100, "unit": "%"}, {"measurement": "Activity", "setting": "[3]", "value": 100, "unit": "%"}, {"measurement": "Activity", "setting": "[4]", "value": 95, "unit": "%"}, {"measurement": "Activity", "setting": "[5]", "value": 75, "unit": "%"}, {"measurement": "Activity", "setting": "[6]", "value": 100, "unit": "%"}, {"measurement": "Activity", "setting": "[7]", "value": 93, "unit": "%"}, {"measurement": "Activity", "setting": "[8]", "value": 100, "unit": "%"}, {"measurement": "Activity", "setting": "[9]", "value": 87, "unit": "%"}, {"measurement": "Activity", "setting": "[10]", "value": 96, "unit": "%"}, {"measurement": "Activity", "setting": "[11]", "value": 100, "unit": "%"}, {"measurement": "Activity", "setting": "[12]", "value": 78, "unit": "%"}, {"measurement": "Activity", "setting": "[13]", "value": 79, "unit": "%"}, {"measurement": "Activity", "setting": "[14]", "value": 100, "unit": "%"}, {"measurement": "Activity", "setting": "[15]", "value": 100, "unit": "%"}, {"measurement": "Activity", "setting": "[16]", "value": 89, "unit": "%"}, {"measurement": "Activity", "setting": "[17]", "value": 81, "unit": "%"}, {"measurement": "Activity", "setting": "[18]", "value": 98, "unit": "%"}, {"measurement": "Activity", "setting": "[19]", "value": 51, "unit": "%"}, {"measurement": "Activity", "setting": "[20]", "value": 100, "unit": "%"}, {"measurement": "Activity", "setting": "[21]", "value": 96, "unit": "%"}, {"measurement": "Activity", "setting": "[22]", "value": 89, "unit": "%"}, {"measurement": "Activity", "setting": "[23]", "value": 76, "unit": "%"}, {"measurement": "Activity", "setting": "[24]", "value": 83, "unit": "%"}, {"measurement": "Activity", "setting": "[25]", "value": 83, "unit": "%"}, {"measurement": "Activity", "setting": "[26]", "value": 55, "unit": "%"}, {"measurement": "Activity", "setting": "[27]", "value": 99, "unit": "%"}, {"measurement": "Activity", "setting": "[28]", "value": 88, "unit": "%"}, {"measurement": "Activity", "setting": "[29]", "value": 100, "unit": "%"}]}
